System: astrocytes
Assay: H2O2-induced intracellular ROS levels in astrocytes (DCF-DA)
Format: cell-based, rat
Settings: for ability to reduce H2O2-induced ROS compared among TTF, quercetin and memantine: concentrations higher than 16 μM, ROS after 1 h, p>0.05
Description: Intracellular ROS levels were detected using the non-fluorescent cell permeating compound, 2′7′-dichlorofluorescein diacetate (DCF-DA). DCF-DA is hydrolyzed by intracellular esterases and then oxidized by ROS to a fluorescent compound 2′-7′-DCF. Astrocytes were plated onto 24 wells plates (300,000 cells/well) and treated with DCF-DA (20 μM) for 30 min at 37° C. Following incubation with DCF-DA, cultures were rinsed twice with PBS and then re-suspended in DMEM containing 10% FBS, 8.4 mM HEPES, 2 mM glutamine, 100 U/ml penicillin, and 100 μg/mL streptomycin. ROS levels (fluorescence) at time zero were measured in a plate reader with excitation at 485 nm and emission at 520 nm. Astrocytes were then treated with TTF for 2 h before the addition of H2O2 and ROS levels (fluorescence) were measured in a plate reader with excitation at 485 nm and emission at 520 nm every hour for 4 h.
1. Produce a primary culture of rat brain glial cells according to the method described in “Protective effects of the essential oil of salvia fruticosa and its constituents on astrocytic susceptibility to hydrogen peroxide-induced cell death”. 2009. A. Elmann, S. Mordechay, M. Rindner, O. Larkov, M. Elkabetz, U. Ravid. Journal of agricultural and food chemistry. 57(15):6636-41; 2. Separate astrocytes from other cell types in the culture according to the method described in “Protective effects of the essential oil of salvia fruticosa and its constituents on astrocytic susceptibility to hydrogen peroxide-induced cell death”. 2009. A. Elmann, S. Mordechay, M. Rindner, O. Larkov, M. Elkabetz, U. Ravid. Journal of agricultural and food chemistry. 57(15):6636-41; 3. Plate astrocytes (300,000 cells/0.5 ml/well of 24 wells plate) and incubate (37° C., 5% CO2) for 24 hr as described in: Elmann, A., et al., (2011). Extract of Achillea fragrantissima downregulates ROS production and protects astrocytes from oxidative-stress-induced cell death. In: “Neurodegenerative Diseases—Processes, Prevention, Protection and Monitoring”, ISBN 978-953-307-485-6, (Raymond Chuen-Chung Chang, ed). […] Read fluorescence of “time 0” at 485 nm (Extinction) and 528 nm (Emmision). […] Read fluorescence at 1, 2, 3, 4 hr after the addition of H2O2 (Ex: 485 nm and Em: 528 nm). […]
Astrocytes were pre-loaded with DCF-DA for 30 min and washed. […] ROS levels in astrocytes were measured 1 h and 4 h after the application of H2O2. […] H2O2 was added to the culture and the fluorescence intensity representing ROS levels was measured after 1 h. […]
Preloaded astrocytes were then preincubated for 2 h with various concentrations of achillolide A or memantine. H2O2(175 μM) was added and the fluorescence intensity was measured […]. […]

| Compound | ability to reduce H2O2-induced ROS compared among TTF, quercetin and memantine (2 h preincubation) | further results |
| --- | --- | --- |
| C=C1CCC2=C(CO)C(=O)O[C@H]2/C=C(\C)[C@H](OC(C)=O)CC1=O [achillolide A] |  | effect on H2O2-induced ROS production (2 h preincubation, H2O2 175 μM, fluorescence 20 h later): attenuates |
| COc1cc(-c2oc3cc(OC)c(OC)c(O)c3c(=O)c2O)ccc1O [TTF, 3,5,4′-trihydroxy-6,7,3′-trimethoxyflavone] |  | effect on H2O2-induced intracellular ROS levels (8 μM, H2O2 175 μM, ROS measured 1 h and 4 h after H2O2): inhibited the H2O2-induced elevation of intracellular ROS |
| O=c1c(O)c(-c2ccc(O)c(O)c2)oc2cc(O)cc(O)c12 [quercetin, 3,3′,4′,5,7-Pentahydroxyflavone, reference compound] | no significant difference |  |
| CC12CC3CC(C)(C1)CC(N)(C3)C2 [memantine, reference compound] | no significant difference |  |

Source: patent publication US11752125B2, “Anti-neuroinflammatory and protective compounds in Achillea fragrantissima” (THE STATE OF ISRAEL MINISTRY OF AGRICULTURE & RURAL …, priority 2013, dated 2023)
